Experimental data: patent US20070129307A1, “Insulin epitopes for the treatment of type 1 diabetes” (The University of British Columbia, priority 2001, published 2007)
“Also recorded” adds a separate entry of the source.

Assays:
[1] = molecular target: T1, HLA-A*0201 (Homo sapiens, UniProt P04439, D140Y/D185E/D98H/E176V/E277Q/G131W/G231S/I119V/I121R/I166T/I218V/L300P/L318F/N151K/N90K/P208A/P217A/Q86G/Q94H/R138H/R169H/T345S); experiment: Temporal stability (dissociation) of peptide/HLA-A*0201 complexes on T2 cells; format: binding; details: in 4 hours at 37° C., T2 cells with emetine, normalized to CMV/HLA-A2
T1 construct: cell membrane stabilization of the HLA-A2 molecule in TAP-deficient 174×CEM.T2 cells; endogenous in cells; host or cells: 174×CEM.T2 (T2) cells, TAP-deficient
Method: The stability of complexes formed with the peptides and HLA-A2 on T2 cells was assessed, over a 4-hour period at 37° C. After peptide removal and addition of emetine to inhibit protein synthesis, T2 cells were cultured at 37° C. and the HLA-A2 expression was determined at different incubation times using anti-HLA-A2 antibody. The stability of the various peptide/HLA-A2 complexes were then normalized relative to that observed for CMV/HLA-A2 complexes set as 100%.
The temporal stability of peptide/HLA-A*0201 complexes was assessed as previously described (Valmori, supra). Briefly, T2 cells were cultured with synthetic peptides overnight at room temperature as performed for peptide binding assay. The following day, after removing peptide and adding emetine (10^−4 M; Sigma-Aldrich, Oakville, Ontario, Canada) to block protein synthesis, cells were incubated at 37° C. for the indicated time periods. At each time point, an aliquot of cells was washed and stained with FITC-conjugated anti-HLA-A2 monoclonal antibody (BB7.2). Surface HLA-A2 expression was assessed by flow cytometry (FACSCalibur) and MFI was recorded. The CMV peptide was used as a positive control. Results are expressed as relative complex stability =100×[(MFI with given peptide—MFI without peptide)/(MFI with CMV peptide—MFI without peptide)].

[2] = system: HLA-A2 restricted CD8+ T cells (PBMC); details: for T cell responses in diabetic patients and controls: non-diabetic and non-HLA matched controls
[3] = system: murine autoreactive T cells (NOD spleen cells); experiment: Interferon-gamma ELISPOT with NOD spleen cells; format: cell-based, mouse
Source text: The effector cells (CTL) of the ELISPOT assay are contained within spleen cells from NOD mice aged 10 weeks. The spleens from these mice contain a proportion of autoreactive CTL destined to destroy pancreatic beta cells.
The peptide NRP-V7 was used as a positive control and is a previously described synthetic autoepitope (automimotope) of NOD mice (Amrani et al., 2000). NRP-V7 was not derived from any endogenous mammalian protein sequence but was identified by screening combinatorial peptide libraries. The peptide TUM was used as a negative control. TUM is derived from an endogenous tumour peptide not known to participate in type 1 diabetes but known to bind to the MHC class I molecule, H-2Kd.

[4] = system: NOD mice; experiment: Peptide immunisation of NOD mice, diabetes onset; format: in vivo, mouse; details: by week 18; 100 μg peptide intraperitoneally from 3 weeks of age; diabetic = two consecutive blood sugars >15 mM
Method: Peptides are administered to female NOD mice in accordance with standard laboratory methods.
Three groups of NOD mice (n=10 per group, purchased from Taconic, Germantown, N.Y., U.S.A.) were immunised beginning at three weeks of age with 100 μg of TUM, NRP-A7, or TV1 (MTV-1) peptide in PBS solution, intraperitoneally once per week for two weeks, then once every two weeks. Mice were monitored for hyperglycaemia weekly and considered to be diabetic after two consecutive blood sugars >15 mM.

[5] = molecular target: T2, H-2Kd (Mus musculus, UniProt P01902); experiment: MHC class I stabilization assay on RMAS-Kd cells (FACS); format: binding; details: background without peptide 6.07%
T2 construct: expressed in transfected cells; host or cells: RMAS (TAP-deficient murine cell line) transfected with H-2Kd
T2 sequence (P01902 22-368): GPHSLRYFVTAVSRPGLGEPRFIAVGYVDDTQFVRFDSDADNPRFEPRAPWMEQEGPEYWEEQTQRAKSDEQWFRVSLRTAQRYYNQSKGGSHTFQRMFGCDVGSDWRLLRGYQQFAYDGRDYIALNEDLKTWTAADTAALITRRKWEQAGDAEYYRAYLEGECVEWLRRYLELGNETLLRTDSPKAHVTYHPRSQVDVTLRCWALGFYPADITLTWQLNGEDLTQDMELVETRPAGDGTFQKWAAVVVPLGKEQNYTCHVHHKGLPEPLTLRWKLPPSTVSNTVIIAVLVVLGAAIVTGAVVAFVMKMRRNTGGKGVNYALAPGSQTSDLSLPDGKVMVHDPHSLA
T2 sequence (P01887 21-119 partner): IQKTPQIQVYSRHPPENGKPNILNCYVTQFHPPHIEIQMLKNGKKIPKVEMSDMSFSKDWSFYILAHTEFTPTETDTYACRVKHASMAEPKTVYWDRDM
Method: A peptide (for example, TUM, V7, INSL, TV1, TV2, or TV3) is added and the cells are incubated at room temperature for 1 hour, and then incubated at 37° C. for 3 hours. The cells are washed 3 times with 0.3% bovine serum albumin-phosphate buffer solution (BSA-PBS), and then stained with fluorescently labelled anti-mouse H-2Kd-FITC antibody. Fluorescent-activated cell sorting (FACS) analysis is performed to count the percentage of cells showing positive staining.
FACS analysis was performed to quantify the percentage/proportion of antigen presenting cells (RMAS-Kd) that express stable MHC class I on their cell surface, in association with the TV1 peptide. RMAS-Kd is a transporter for antigen presentation (TAP)-deficient RMAS cell line transfected with the mouse MHC class I molecule, H-2Kd. Because the cell line is TAP deficient it cannot assemble MHC class I (in this case H-2Kd) complexes stably but requires surface stabilisation by exogenous peptides that can bind with the H-2Kd heavy chain and beta-2 microglobulin. The cell line was stained for MHC class I expression with or without TV1 peptide.

[6] = system: human autoreactive T cells (PBMC); experiment: Interferon gamma ELISPOT of PBMC from type 1 diabetes patients (Example 5); format: cell-based; details: 1 μM peptide, PBMC 20,000 per well, recent onset type 1 diabetes patients, FIG. 8
[7] = molecular target: T1, HLA-A*0201; experiment: FACS assay of peptide binding to HLA-A2 on T2 cells (Example 6)
[8] = system: autoreactive T cells in NOD pancreatic islets; experiment: Interferon-gamma ELISPOT with T cells of NOD pancreatic islets; format: cell-based, mouse; details: FIG. 5
[9] = system: CTL from pancreatic islets of NOD mice; experiment: H-2Kd tetramer staining of NOD islet cells; format: cell-based, mouse; details: H-2Kd tetramers, islet cells ex vivo or after in vitro culture, FIG. 12
Source text: MHC class I tetramers (for example, H-2Kd tetrameric complexes) are synthesised as previously described by Altman et al. (Science 274:94-96, 1996). MHC heavy chain, modified by the addition of a C-terminal biotinylation site, and beta 2 microglobulin are expressed separately in E. coli (BL21, Stratagene, La Jolla, Calif., U.S.A.). Peptides were synthesized synthesised on a Perkin-Elmer-ABI 431A by the NAPS Unit, University of British Columbia, BC, Canada. Purified heavy chain, beta 2 microglobulin and peptide are refolded at 4° C. for 48 hours in a TRIS-based buffer, and the refolded product is concentrated, biotinylated using BirA enzyme (Avidity, Denver, Colo., U.S.A.) in the presence of biotin, ATP and Mg++ and purified by FPLC. Streptavidin-phycoerythrin conjugate is added in a 1:4 molar ratio and the tetrameric product is concentrated to approximately 1 mg/ml. The tetramer concentration is calculated based upon the concentration of biotinylated protein, quantified by Bradford assay, prior to addition of streptavidin.
Single cell suspensions of lymphocytes are incubated with 1 μl of a 1 mg/ml solution of MHC tetramer for 2-3 hours at 4° C. in FACS staining buffer (HBSS/FBS 2%/Sodium Azide 0.01%/EDTA 100 mM). The cells are centrifuged and washed three times before staining with antibody to CD8. […]

ALWMRLLPL [Insulin2]
dissociation of peptide/HLA-A2 complexes [1]: about 20% | non-diabetic control subjects that responded ([2]; second study): three of the five

DLMGYIPLV [HCV, reference compound]
subjects responding to the peptide ([2]; first study, all subjects): None of the subjects responded

GMAELMAGL [Phogrin331]
dissociation of peptide/HLA-A2 complexes [1]: about 20% | T cell responses in diabetic patients and controls ([2]; second study): could not be detected

KLPAVLLIL (mTV-1 peptide epitope) [TV1]
recognition by murine autoreactive T cells (interferon-gamma secretion) ([3]; FIG. 1): recognise | recognition by murine autoreactive T cells (interferon-gamma secretion) ([3]; FIG. 1, listed as TV-1): high frequency of CTL that recognise TV-1 | immunized mice considered diabetic [4]: 80% | proportion of H-2Kd on the surface of the APC in the presence of peptide [5]: 64%

KLQVFLIVL (HTV-1 peptide epitope) [IAPP5]
recognition by human autoreactive T cells (interferon-gamma ELISPOT) [6]: elevated HTV1 autoreactivity; also recorded: recognise | binding to HLA-A2 ([7]; FIG. 11, listed as HTV 1): bind to HLA-A2 | binding to HLA-A2 ([7]; FIG. 11, listed as HTV1): binds

KYNKANVFL [NRP-V7, positive control]
recognition by murine autoreactive T cells (interferon-gamma secretion) ([3]; FIG. 1): Interferon-gamma is also secreted; also recorded: recognise | proportion of H-2Kd on the surface of the APC in the presence of peptide [5]: 72% | proportion of H-2Kd on the surface of the APC in the presence of peptide ([5]; listed as V7): 72.71% | interferon-gamma secretion by autoreactive T cells in NOD pancreatic islets [8]: secrete interferon-gamma

KYPAVLLIL (modified version of precursor peptide TV1 (TV2))
recognition by CD8+ T cells (tetramer staining) [9]: recognize | proportion of H-2Kd on the surface of the APC in the presence of peptide [5]: 58%

LLPPLLEHL [IA-2(180)]
T cell responses in diabetic patients and controls ([2]; second study): could not be detected

LYLVCGERG [INSL]
proportion of H-2Kd on the surface of the APC in the presence of peptide [5]: 73.68% | proportion of H-2Kd on the surface of the APC in the presence of peptide ([5]; listed as INS-L): 73% | interferon-gamma secretion by autoreactive T cells in NOD pancreatic islets [8]: minimally

NRP-A7: positive control peptide; known synthetic peptide autoantigen recognized in the context of H-2Kd (KYNKANAFL; NRP-A7 peptide)
immunized mice considered diabetic [4]: 20%

RLLCALTSL [IGRP293]
dissociation of peptide/HLA-A2 complexes [1]: about 20% | T cell responses in diabetic patients and controls ([2]; second study): could not be detected

RLLPLLALL (mouse insulin derived peptide) [TV3]
proportion of H-2Kd on the surface of the APC in the presence of peptide [5]: 70%

TUM: negative control; derived from an endogenous tumour peptide, known to bind H-2Kd (KYQAVTTTL)
immunized mice considered diabetic [4]: none | proportion of H-2Kd on the surface of the APC in the presence of peptide [5]: 66%
